# “Also recorded” adds a separate entry of the source. Where two headings read alike, the source gives them in different places.
# Legend:
# wild-type flies [1] = conditions: literature and unpublished data; cited from earlier work
# Amylase mRNA (CG18640) = assay: qPCR of Amylase (CG18640) mRNA from whole heads after drug-induced waking; type: in vivo, Drosophila melanogaster; conditions: wild-type fly heads, immediately after 14 h of drug-induced waking; caffeine 2.5 mg/mL, methamphetamine 1 mg/ml
# Protocol: (§1) Pharmacological studies were conducted on female Canton-s flies. Three-day old Cs female flies were individually placed into 65 mm glass tubes in the Trikinetics activity monitoring system and evaluated for two days under LD. […] All groups had similar amounts of baseline sleep. In all cases, the drug was dissolved in food along with an inert dye. It could be determined, therefore, if the fly had ingested the drug not only by its behavior, but also by observing the dye in its abdomen. The following morning, after 14 h of drug treatment, two thirds of the flies from each group were frozen and RNA was extracted from whole heads and the amount of dye in the abdomen was evaluated. The remaining one third of the flies were monitored for an additional 24 h to assay the size of the homeostatic response.
# Total RNA was isolated from fly heads using Trizol (Invitrogen, Carlsbad, Calif.) following the manufacturers protocol. […] Values were expressed as a percentage of untreated animals and were evaluated using a one-way ANOVA.
# Sustained periods of waking in the fly can be induce pharmacologically (Hendricks, J C et al., 2000. Neuron 25: 129-138; Shaw, P J et al., 2000. Science 287: 1834-1837). […] Therefore wild-type flies were exposed to either caffeine or methamphetamine for 14 h and evaluated the magnitude of the homeostatic response. […]
# wild-type flies [2] = assay: Pharmacologically induced waking in flies (Trikinetics activity monitoring); type: in vivo, Drosophila melanogaster; conditions: drug dissolved in food
# Protocol: (§2) Three day old female flies were placed in 65 mm glass tubes and sleep parameters were continuously evaluated throughout all experiments using the Trikinetics activity monitoring system as previously described (Shaw, P J et al., 2000. Science 287: 1834-1837; Shaw, P J et al., 2002. Nature 417: 287-291) (www.Trikinetics.com). […] Three independent replicates of 32 flies were conducted for each time point. Following SD, two thirds of the flies from each group were frozen and RNA was extracted from whole heads. The remaining one third of the flies were monitored for an additional 24 h to assay the size of the homeostatic response. Using this protocol, both gene expression and behavior can be evaluated in siblings that have been exposed to identical environments and experimental manipulations.
# Pharmacological studies were conducted on female Canton-s flies. Three-day old Cs female flies were individually placed into 65 mm glass tubes in the Trikinetics activity monitoring system and evaluated for two days under LD. […] It could be determined, therefore, if the fly had ingested the drug not only by its behavior, but also by observing the dye in its abdomen. The following morning, after 14 h of drug treatment, two thirds of the flies from each group were frozen and RNA was extracted from whole heads and the amount of dye in the abdomen was evaluated. […]
# wild-type flies [3] = assay: Homeostatic response (sleep recovered) in the 24 h after 14 h of drug-induced waking; type: in vivo, Drosophila melanogaster; conditions: for homeostatic response / compensation for sleep lost during drug-induced waking: 14 h on drug, 24 h recovery, caffeine 2.5 mg/ml, methamphetamine 1 mg/ml
# Protocol: as §2, §1
# Sustained periods of waking in the fly can be induce pharmacologically (Hendricks, J C et al., 2000. Neuron 25: 129-138; Shaw, P J et al., 2000. Science 287: 1834-1837). […] Therefore wild-type flies were exposed to either caffeine or methamphetamine for 14 h and evaluated the magnitude of the homeostatic response. As above, gene expression was evaluated using qPCR and one third of the flies were allowed to recover for 24 h after drug removal and regular food was restored. […]
# Amy/Luc flies = assay: Bioluminescence recording in Amy/Luc flies (amylase promoter linked to firefly luciferase); type: in vivo, Drosophila melanogaster; conditions: caffeine 2.5 mg/ml from the morning after a full night's sleep, recorded 12 h, n=9
# Protocol: Prior to luminescence recordings, sleep was evaluated for 2 days in female Amy/Luc flies as described above with the exception that they were maintained on 0.5% sucrose supplemented with 1 mM beetle luciferin (Promega, Madison Wis.). On day 3, flies were sleep deprived for 12 h (n=9) or served as untreated controls (n=9). Flies that were sleep deprived were removed from their 65 mm glass tubes and placed into Petri dishes with 200 μl of fresh 0.5% sucrose 1 mM beetle luciferin. Siblings that had not been sleep deprived were placed into Petri dishes with 2.5 mg/ml of caffeine added to the 0.5% sucrose 1 mM beetle luciferin. Bioluminescence was subsequently recorded in 1 min bins for 12 h under photomultiplier tubes (HC135-11MOD; Hamamatsu, Shizouka, Japan) as previously described (Abraham, U, et al., 2005. J Neurosci 25: 8620-8626). Amy/Luc flies that had never been exposed to luciferin were recorded for 12 h and served as a blank. Luminescence for SD and caffeine treated flies was subtracted from the blank and smoothed using a 3 h running average. Two independent replicates were conducted.
# To determine whether amylase can provide an assessment of sleep drive in real-time, a Drosophila line in which the promoter for amylase was linked to the firefly luciferase (Amy/Luc) was evaluated (Hickey, D A, et al., 1994. Proc Natl Acad Sci USA 91: 11109-11112). […]
# flies = conditions: 20 μM paraquat, exposures longer than 16 h; Shaw et al. 2002; cited from earlier work
# amylase activity = assay: Amylase activity in fly homogenates after paraquat stress (Infinity Amylase reagent); type: in vivo, Drosophila melanogaster; conditions: Cs female flies, 20 μM paraquat in 1% agar 5% sucrose for 16 h
# Protocol: Amylase activity was evaluated following 28 h of sleep deprivation in Cs flies to match the duration of waking used in the human experiments. Female Cs flies were sleep deprived for 28 h beginning at lights out (8 pm). Whole body homogenates were extracted from 4 groups of 5 flies and compared to untreated circadian-matched controls; experiments were conducted in duplicate. Amylase activity was determined using the Infinity Amylase reagent (TR25421; Thermo Electron Corp, Louisville, Co., USA) according to the manufacturer's instructions. All samples were assayed in quadruplicate. To evaluate the effects of stress on amylase activity, Cs females were placed onto 20 μM paraquat dissolved in 1% agar 5% sucrose for 16 h and sacrificed at the same circadian time as the 28 h SD flies and their controls.
SMILES,waking produced by the drug (wild-type flies [1]),Amylase (CG18640) mRNA expression vs. untreated controls (Amylase mRNA (CG18640)),waking produced by the drug (wild-type flies [2]),homeostatic response / compensation for sleep lost during drug-induced waking (wild-type flies [3]),further results
COC(=O)C(c1ccccc1)C1CCCCN1 (stereo not shown) [methylphenidate],produce waking,,,,
CN[C@@H](C)Cc1ccccc1 [methamphetamine],,not activated; also recorded: do not induce Amylase mRNA; also recorded: not after waking induced by methamphetamine,produce sustained periods of waking,do not compensate for the lost sleep; also recorded: do not induce a homeostatic response,
CC(N)Cc1ccccc1 (stereo not shown) [amphetamine],produce waking,,,,
Cn1c(=O)c2c(ncn2C)n(C)c1=O [caffeine],,strongly activated; also recorded: exhibit significant increases in Amylase mRNA; also recorded: elevated,produce sustained periods of waking,exhibit a rebound of similar magnitude as that seen following manual SD,"bioluminescence (counts/min) in Amy/Luc flies (Amy/Luc flies): increased as the animals spent more time on caffeine; also recorded: progressive increase in bioluminescence; lost sleep recovered (wild-type flies [3]; 14 h of caffeine-induced waking, FIG. 5A): 30-50%"
C[n+]1ccc(-c2cc[n+](C)cc2)cc1 [paraquat],,,,,lethality on paraquat (flies): flies begin to die during longer exposures; amylase activity (amylase activity): did not alter Amylase activity
NC(=O)C[S+]([O-])C(c1ccccc1)c1ccccc1 (stereo not shown) [modafinil],produce waking,,,,

# From patent publication US7915005B2, “Methods for detecting sleepiness” (Washington University in St. Louis, priority 2005, dated 2011)
